Patent publication US8030444B2, “Microbicidal compositions comprising human CD38 polypeptides derived from the extracellular membrane-proximal region” (priority 2002, dated 2011)
Like-named read-outs stand apart in the source and are kept apart here. Ends that are not written are not given here.

Key:
[1] = test system: primary HIV-1 isolates (R5); experiment: Infection of PBMC by primary HIV-1 isolates, p24 ELISA; type: cell-based
[2] = target: T1, recombinant soluble human (rsh) CD4 (Homo sapiens, UniProt P01730); experiment: Binding of biotin-conjugated peptide to plate-adsorbed rshCD4 (ELISA); conditions: 0.1-10 μM peptide
T1 construct: recombinant soluble human (rsh) CD4 (2 μg/ml) (R&D Systems); purchased R&D Systems
Protocol: Synthetic peptides from CD38 (SEQ ID NO:23) were conjugated with biotin (Pierce) as described in Wilchek, M., and Bayer, E. A., “Avidin-biotin technology,” Methods Enzymol., 184:1-746 (1990). Briefly, recombinant soluble human (rsh) CD4 (2 μg/ml) (R&D Systems) was adsorbed onto wells of 96-well-ELISA plates. Wells were then saturated with phosphate buffer saline (PBS)+2% bovine serum albumin (BSA), washed with PBS+1% BSA+0.05% Triton X-100, and the plates were incubated for 2 h at 37° C. with 100 μL of different concentrations (0.1-10 μM) of biotin-conjugated peptide. After six washes, 100 microl of streptavidin-conjugated horseradish peroxidase (HRP) from a commercially available HIV-1 p24 ELISA kit (NEN) diluted 1:100 in PBS+1% BSA was added to the wells for 30 min. at room temperature. After six more washes, the wells were incubated in the dark for 30 min. at room temperature with 100 μL of o-phenylenediamine (OPD tablets-Sigma), a chromogenic substrate for HRP diluted in phosphate-citrate buffer pH 5.0 as indicated in the Manufacturer's instructions. Then, the reaction was stopped by adding to each well 100 μL of 4 N sulfuric acid. Plates were read at 450 nm using an automated ELISA reader. […] Negative controls were run by incubating the wells with each of the titrated peptide in the absence of rshCD4 and performing the same steps described above. […]

[3] = test system: MT-4 cells; experiment: Toxicity assays (trypan blue, MTT, propidium iodide/annexin V) on MT-4 cells; type: cell-based
Protocol: (§1) Cell proliferation was assessed by sequential counts of the number of live cells per ml of cell cultures by the trypan-blue exclusion method. Cell viability and apoptosis were analyzed by the methyl tetrazolium (MTT) method (Sigma-Aldrich) according to a procedure previously described in Savarino, A., Calosso, L., Piragino, A., Martini, C., Gennero, L., Pescarmona, G. P., and Pugliese, A. (1999). Modulation of surface transferrin receptors in lymphoid cells de novo infected with human immunodeficiency virus type-1. Cell. Biochem. Funct 17, 47-55, the contents of which are hereby incorporated in their entirety, and by propidium iodide/annexin V FITC staining (MedSystems Diagnostics GmbH, Vienna, Austria) following the manufacturer's instructions.
(§2) Cells (from established cell lines or primary cultures) were resuspended at 2.5×10^5/ml in the presence of 0, 0.1, 1, 10 and 100 nM CD3851-74 MBP. Then, 200 μL portions were transferred to microtiter trays and maintained at 37° C. […] Cell viability was monitored daily by trypan blue-dye exclusion. Cell proliferation was assessed by sequential counts of the number of live cells per ml of cell cultures by the trypan-blue exclusion method. Cell viability and apoptosis were analyzed by the methyl tetrazolium (MTT) method, and by propidium iodide/annexin V fluorescein isothiocyanate (FITC) staining following the manufacturer's instructions. […]

[4] = test system: HIV-1IIIB-infected MT-4 cells; experiment: HIV-1 cytopathogenicity in MT-4 cells, re-clustering after cluster disruption; type: cell-based; conditions: five days post-infection with HIV-1IIIB, 100 μM (FIG. 6)
Protocol: MT-4 cells display a typical clustered pattern. When infected with HIV-1IIIB, MT-4 cells lose the capacity of forming clusters. At five days post-infection, clusters were dissociated by pipetting, and reclustering was examined microscopically after a 3-h incubation at 37° C., as described by Pauwels et al. Pauwels, R., et al., “Sensitive and rapid assay on MT-4 cells for detection of antiviral compounds against the AIDS virus,” J Virol Methods, 16: 171-185 (1987). In MT-4 cells, in fact, HIV-1IIIB acts as a slow/low syncytium-inducing strain whose cytopathic effect consists in loss of cell ability to cluster and is strictly correlated to the level of viral replication.

[5] = test system: HIV-1IIIB
[6] = target: FITC-conjugated HIV-1IIIB gp120; experiment: gp120 attachment assay, FITC-gp120 staining of cells by flow cytometry; type: binding; conditions: MT-2 cells, 50 nM peptide, 5 μg/ml gp120
Protocol: In gp120 attachment assays, cells were incubated for 30 min. at 4° C. with 2 μg/ml of FlTC-conjugated HIV-1IIIB gp120 (gp120IIIB, Intracell Corp, London, UK) in PBS plus 2% albumin plus 0.01% NaN3 (PBS A/A) in the presence or absence of CD38 or CD38-derived molecules. Cells were then washed three times in PBS A/A, and fluorescence was acquired by flow cytometry. Fluorescence data were expressed as MeFI and normalized for CD4 expression where necessary.
In gp120 attachment assays, cells were incubated with saturating concentrations of FITC-conjugated gp120 from the HIV-1IIIB strain (gp120IIIB) (Intracell Corp, London, UK) in the presence or absence of CD3851-74, (SEQ ID NO:15, 21), and acquired fluorescence flow-cytometrically. The MeFI was used as an estimate of gp120 binding to cells.
HIV-1 gp120 binding experiments confirmed that CD3851-74 MBP inhibits at the level of gp120 attachment to target cells. In these experiments, MT-2 cells were incubated for 30 min. at 4° C. with saturating concentrations (5 μg/ml) of fluorescein isothiocyanate-labeled (FITC) HIV-1IIIB gp 120 (gp 120IIIB) in PBS plus 2% albumin plus 0.01% NaN3 (PBS A/A) in the presence or absence of 50 nM CD3851-74 MBP. Cells were then washed three times in PBS A/A, and fluorescence was acquired by flow cytometry.

[7] = test system: HeLa cells; experiment: Toxicity assays (trypan blue, MTT, propidium iodide/annexin V) on HeLa cells; type: cell-based; conditions: 0.1-100 nM
Protocol: as §1, §2

[8] = test system: primary peripheral blood mononuclear cells (PBMC); experiment: Toxicity assays (trypan blue, MTT, propidium iodide/annexin V) on PBMC; type: cell-based
Protocol: as §1, §2

[9] = test system: PHA-stimulated PBMC; experiment: Cytokine production by PBMC in response to PHA; type: cell-based
Protocol: To evaluate whether CD3851-74 MBP might costimulate activation of PBMC, tests were conducted to evaluate cytokine production in response to PHA. For this purpose, PBMC were ficoll-separated and incubated with 0, 0.1, 1, 10 nM CD3851-74 MBP, in the presence of 0.1 or 1 μg/ml PHA. Then, supernatants were collected at 4, 12, 24, and 36 h of incubation, and the levels of TNF-alpha, IFN-gamma, IL-02, IL-4, IL-5, IL-6 and IL-10 were tested by ELISA (R and D Systems, Minneapolis, Minn.) or by cytofluorimetric multi-cytokine bead arrays (Becton-Dickinson). […] Some of these effects are depicted in the FIGS. 14, 15, 16 and 17. […] However, if significant, it would not be of safety concern. By contrast, it would support the anti-HIV effect of CD3851-74 MBP, since both TNF-alpha and IL-6 promote HIV-1 replication. […] De S K, Devadas K, Notkins A L. Elevated levels of tumor necrosis factor alpha (TNF-alpha) in human immunodeficiency virus type 1-transgenic mice: prevention of death by antibody to TNF-alpha. J Virol 2002; 76: 11710-4.

[10] = Water solubility of peptides
[11] = test system: cell cultures
[12] = test system: HIV-1IIIB; experiment: HIV-1IIIB infection of wild-type MT-2 cells in presence of soluble CD38; type: cell-based
Protocol: In acute infection assays, the appropriate cell types were incubated at 37° C. for 2 h with the viral stock suspensions at a multiplicity of infection (MOI) of approximately 0.1, unless otherwise specified. After three washes, cells were incubated in fresh culture medium for 7 days at 37° C., and cell-free supernatants at different intervals post-infection were harvested for ELISA measurement of HIV-1 p24 (NEN Life Science Prod., Boston Mass.) or HIV-2 p27 (Coulter, Hialeah, Fla.). Where necessary, soluble CD38-derived molecules were added during the step of virus adsorption onto cells.
First, attention was focused on the intracellular (IC) domain of CD38. HIV-1IIIB was used to infect both a MT-2 cell line transfected with a truncated form of CD38 lacking the IC domain (CD3824-300) and wild-type MT-2 cells in the presence of a recombinant soluble form of CD38 consisting solely of the extracellular (EC) domain (sCD3845-300).

## (GPGTTK)8 polylysin (also: eight copies on polylysine core (MBP); listed as Homo sapiens) [GPGTTK MBP]
[1]; HIV-1UG3, PBMC, MOI 0.5, 1 nM
  anti-HIV activity against higher viral challenge: maintains the anti-HIV activity
[2]
  association of biotin-conjugated peptide to rshCD4 (O.D.): associated to rshCD4 in a manner dependent on the concentration
[3]; concentrations showing anti-HIV effects
  toxic effects on MT-4 cells: no toxic effects
[4]
  ability of infected MT-4 cultures to form clusters: maintained a partial ability to form clusters
[5]; MT-4 cells, p24 ELISA
  inhibition of HIV-1IIIB replication (in words): dose-dependently inhibited infection

## (SGPGTTKRFPETVLACVKYTEIH)8 polylysin [CD3851-74 MBP]
[6]
  gp120-FITC binding to cells: down-modulated
[1]; PBMC, 1 nM
  growth kinetics of primary R5 isolates subtype C (VI 829) and subtype A (UG3): delayed the growth kinetics
[1]; antiviral effects at 0.1 nM, no toxicity up to 100 nM
  estimated selectivity index: 1000
[1]; pilot experiments, PBMC, isolate VI 829
  concentration range inhibiting infection of PBMC by primary HIV-1 isolates: 0.1 to 10 nM
[1]; see Example IV
  concentration at which antiviral effects were detected: 0.1 nM
[3]; MT-4 cells, 0.1-100 nM
  cell proliferation, viability and death: does not alter cell proliferation and viability nor does it induce death
[7]
  cell proliferation, viability and death: does not alter cell proliferation and viability nor does it induce death
[8]; 0.1 nM-100 nM, growth kinetics, trypan blue, MTT, annexin V/propidium iodide
  toxicity in uninfected PBMC cultures: did not display any significant toxicity
[8]; PBMC, PHA-stimulated or unstimulated, three donors, 0.1-100 nM
  cell proliferation, viability and death: does not alter cell proliferation and viability nor does it induce death
[9]; PBMC, 0.1 or 1 μg/ml PHA, 0.1, 1, 10 nM peptide
  IL-2, IL-4, IL-5 and IL-10 levels versus untreated cells: essentially identical
[9]; PHA-stimulated PBMC, decrease did not reach statistical significance
  TNF-alpha and IL-6 levels: transient and donor-dependent inhibition
[5]; HIV-1 replication, compared with Example I
  range of inhibitory concentrations lower than that of CD3851-74: approximately 1000 fold
[5]; MT-4 cells, p24 ELISA Day 3
  concentration range of dose-dependent inhibition of HIV-1IIIB infection: 1 to 10 nM
[5]; read-out: EC50, inhibition of HIV-1IIIB infection, MT-4 cells, p24 ELISA Day 3, peptide added only during virus adsorption
  EC50: 12 nM
[5]; read-out: EC90, inhibition of HIV-1IIIB infection, MT-4 cells, p24 ELISA Day 3, peptide added only during virus adsorption
  EC90: 75 nM

## RQQWSGPGTTKRFPETVLARCVKYTEIH [SEQ ID NO: 17]
[10]
  water solubility: water-insolubility

## RQTWSGPGTTKRFPETVLARCVKYTEIH [SEQ ID NO: 13]
[10]
  water solubility: water-insolubility

## RWRQQWSGPGTTKRFPETVLARCVKYTEIH [SEQ ID NO: 16]
[10]
  water solubility: water-insolubility

## RWRQTWSGPGTTK [SEQ ID NO: 14]
[10]
  water solubility: water-insolubility

## RWRQTWSGPGTTKRFPETVLARCVKYTEIH [SEQ ID NO: 12]
[10]
  water solubility: water-insolubility

## SGPGTTKRFPETVLARCVKYTEIH [CD3851-74]
[5]; 1IIIB, 2 h
  EC50: 2200 nM
  EC90: 182000 nM
[11]
  toxic effects at the concentrations used: did not carry out toxic effects

## sCD3845-300: recombinant soluble form of CD38 consisting solely of the extracellular (EC) domain
[12]
  HIV infection of MT-2 cells: inhibited HIV infection
